Consider four compounds from patent publication US6437184B1, “Oxime compounds, their use, and intermediates for their production” (Sumitomo Chemical Company, Limited, priority 1997, dated 2002).

What all share (type): in vivo
In assay [1] the test system is Cydia pomonella. Briefly: Insecticidal test against Cydia pomonella. To be noted: 168 h, 100 ppm water dilution, 0.2 ml on surface of artificial diet, eggs just before hatching, after 7 days. In outline: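 A 100 ppm aqueous dilution of formulated compound (0.2 ml) was spread onto 3 g artificial diet and air-dried. About 20 near-hatching Cydia pomonella eggs on wax paper were added, four replicates per treatment. Larval mortality was recorded after 7 days.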

The subject of assay [2] is Plutella xylostella. The experiment in a line: Insecticidal test against Plutella xylostella. To be noted: 96 h, 50 ppm water dilution sprayed over potted cabbages, 25 ml per pot, third-instar larvae, after 4 days, read-out: mortality. The procedure, abridged: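 Potted cabbages at four-to-five leaf stage sprayed with 50 ppm compound formulation plus spreading agent at 3000-fold dilution, air-dried, then infested with ten third-instar larvae per pot. Mortality determined after 4 days.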

In assay [3] the test system is Heliothis virescens. The experiment in a line: Insecticidal test against Heliothis virescens. To be noted: 168 h, 100 ppm water dilution, 0.2 ml on surface of artificial diet, second-instar larvae, after 7 days. How it is done: A water dilution (100 ppm) of a test compound formulation obtained according to Formulation Example 1 was added dropwise at a volume of 0.2 ml and uniformly spread over the surface of an artificial diet having a weight of 3 g, which had been prepared in a 30 ml plastic cup. After air drying, one second-instar larva of Heliothis virescens was set free in each cup. Ten larvae were used for each treatment. After 7 days, the mortality of the larvae was determined.

Assay [4] concerns Spodoptera litura. The experiment in a line: Insecticidal test against Spodoptera litura. Particulars: 144 h, 500 ppm water dilution, 2 ml absorbed in 13 g artificial diet, fourth-instar larvae, after 6 days. How it is done: A 200-fold water dilution (500 ppm) of a test compound formulation obtained according to Formulation Example 1 or 2 was absorbed at a volume of 2 ml in an artificial diet (Insecta LF available from Nihon Nosan K.K.) having a weight of 13 g, which had been prepared in a polyethylene cup having a diameter of 11 cm. Five fourth-instar larvae of Spodoptera litura were set free in the cup. After 6 days, the survival of the larvae was examined to determine the mortality.

Assay [5] relates to Helicoverpa armigera. The experiment in a line: Insecticidal test against Helicoverpa armigera. Particulars: 120 h, 100 ppm water dilution, cotton leaf fragment immersed 10 seconds, third-instar larvae, after 5 days. The procedure, abridged: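 Cotton leaf discs (5 cm) were dipped 10 s in a 100 ppm aqueous dilution of formulated compound, air-dried, and each was given one third-instar larva. Ten larvae per treatment; mortality was scored after 5 days.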

The subject of assay [6] is Tetranychus urticae. The experiment in a line: Acaricidal test against Tetranychus urticae. Also noted: key: −: almost no damage and completely no surviving mites; ±: slight damage and some few surviving mites; +: rather smaller damage and a rather fewer surviving mites than non-treatment case; ++: same as non-treatment case. To be noted: 500 ppm water dilution, 15 ml sprayed over brush bean with female adults set free 6 days before; after 8 days. How it is done: About twenty female adults of Tetranychus urticae were set free on brush bean (Phaseolus vulgaris) in the primary leaf stage, which had been potted in a plastic cup for 7 days after the seeding. After 6 days, a 200-fold water dilution (500 ppm) of a test compound formulation obtained according to Formulation Example 1 or 2 was sprayed at a volume of 15 ml over the plant. After 8 days, each compound was evaluated for acaricidal activity on the following criteria.
−: almost no damage and completely no surviving mites
±: slight damage and some few surviving mites
+: rather smaller damage and a rather fewer surviving mites than non-treatment case
++: same as non-treatment case

The subject of assay [7] is Musca domestica. The experiment in a line: Insecticidal test against Musca domestica. To be noted: 24 h, 500 ppm water dilution, 0.7 ml on filter paper with sucrose, female adults, after 1 day, read-out: mortality. The procedure, abridged: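 Filter paper treated with 500 ppm water dilution of formulated compound, with sucrose as diet; ten female adult houseflies confined in covered cup. Mortality determined from adult survival after 1 day.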

The term mortality denotes the percentage killed. With `CC(C)(C)ON=CCOCCCCCCOc1c(Cl)cc(OCC=C(Cl)Cl)cc1Cl` [(91), 6-(2,6-dichloro-4-(3,3-dichloro-2-propenyloxy)phenoxy)hexyloxyacetaldehyde O-tert-butyloxime], the mortality at 100 µg/mL in assay [1], in assay [3] and in assay [5] was no less than 80% each time. Also, in assay [2], the mortality at 50 µg/mL is no less than 80%. Moreover, the mortality at 500 µg/mL in assay [4] was no less than 80%.

As for `CC(COCCCCCOc1c(Cl)cc(OCC=C(Cl)Cl)cc1Cl)=NOC(C)(C)C` [(104), 5-(2,6-dichloro-4-(3,3-dichloro-2-propenyloxy)phenoxy)pentyloxyacetone O-tert-butyloxime], the mortality at 50 µg/mL in assay [2] is no less than 80%. In addition, the mortality at 100 µg/mL in assay [3] and in assay [5] was no less than 80% each time. In addition, the mortality at 500 µg/mL in assay [4] was no less than 80%. In addition, in assay [6], the acaricidal activity result is ““−” or “±””.

Take `CCON=C(C)COc1ccc(OCC=CCl)cc1` [(A), 4-(3-chloro-2-propenyloxy)phenoxyacetone O-ethyloxime, reference compound]: the mortality at 500 µg/mL in assay [7] and in assay [4] was 0% each time. Besides, in assay [2], the mortality at 50 µg/mL came out at 0%. Besides, the mortality at 100 µg/mL in assay [5] was 0%. In assay [6], the acaricidal activity entry is recorded as “+”.

For the compound `CC(C)CCON=Cc1ccc(Oc2ccccc2)cc1` [(B), 4-phenoxy-benzaldehyde O-(3-methylbutyl)oxime, reference compound], the mortality at 500 µg/mL in assay [7] and in assay [4] was 0% throughout. The acaricidal activity entry in assay [6] was “+”.
